# Test results from patent US12569542B2, “Treatment of cancer with immune stimulators” (SciClone Pharmaceuticals International (SG) PTE. LTD., priority 2014, dated 2026).
# Where two headings read alike, the source gives them in different places. Where no end group is shown, it is not given here.
# Experiments:
# B16F10 murine melanoma [1] = assay: Subcutaneous B16F10 murine melanoma model, cisplatin positive control (separate historical control study); format: in vivo, mice
# Description: (§1) B16F10 murine melanoma model is derived from MB16 line by successive selection of metastatic clones. B16F1 to B16F10 (ATCC Number CRL-6475™) were generated, with F10 being passaged in mice for 10 times, and thus highly metastatic. This model is widely used in studying metastasis mechanisms, evaluating cancer therapeutics. It is also one of the most common syngeneic models for cancer immunotherapy. Both subcutaneous and experimental metastasis models are very useful.
# (§2) Tumor volumes and body weights were monitored throughout the study. Cisplatin was administered to the positive control group in a separate historical control study. The negative control group was administered with vehicle only in all studies.
# B16F10 mice treated with cisplatin typically show reduced tumor volume (FIG. 1A and Table 3).
# [2] = test system: B16-F10 cells (lung metastases); settings: for Mean Met Count / Percent Inhibition: Day 16; for Mean Met Count: SR1 220.51 μg/animal sc bid to end, Anti-PD-1-SCE 100 μg/animal ip biwk ×3, combination at the same doses, Cyclophosphamide 300 mg/kg ip Qd ×1; for Percent Inhibition: [1 − (T/C)] × 100, compared to Group 1 (vehicle); for Deaths NTR (non-treatment-related death) / Deaths TR (treatment-related death): n = 10 per group
# Description: (§3) The animals were fed ad libitum water (reverse osmosis, 1 ppm Cl) and NIH 31 Modified and Irradiated Lab Diet® consisting of 18.0% crude protein, 5.0% crude fat, and 5.0% crude fiber. The mice were housed on irradiated Enrich-o'cobs™ bedding in static microisolators on a 12-hour light cycle at 20-22° C. (68-72° F.) and 40-60% humidity. DRS-NC specifically complies with the recommendations of the Guide for Care and Use of Laboratory Animals with respect to restraint, husbandry, surgical procedures, feed and fluid regulation, and veterinary care. The animal care and use program at DRS-NC is accredited by the Association for Assessment and Accreditation of Laboratory Animal Care International, which assures compliance with accepted standards for the care and use of laboratory animals.
# (§4) A sixth group of animals was included as the “look-see” group (n=9). B16-F10 cells were harvested during log-phase growth and resuspended at a concentration of 7.5×10^5 cells/mL in PBS. Each mouse received an intravenous (i.v.) tail vein injection of 1.5×10^5 B16-F10 cells (0.2 mL cell suspension) on D1 of the study.
# (§5) Test Articles: Anti-PD1 alpha peptide (coded as anti-PD-1-SCE, Lot. No. 5177/0214) and thymosin alpha-1 peptide (Thymalfasin, code-named SR1, Lot. No. 1402-224). DRS-NC assigned code names for the purpose of confidentiality during in-house testing. […] Dosing was not adjusted per body weight. Anti-PD-1-SCE antibody was diluted in PBS to yield a 10.0 mg/mL dosing solution, which provided a 100 mg/kg dosage in a dosing volume of 10 mL/kg. Dosing was not adjusted per body weight. […] Dosing was adjusted per body weight.
# (§6) Endpoint: The endpoint of the B16MET-e117 study was defined as 100 metastases per lung set. Two to three animals from the “look-see” group were euthanized in three days intervals beginning on Day 9 and lung metastatic foci were counted. […] The study was terminated on D16 and all animals were euthanized and their metastases counted. Percent inhibition was defined as the difference between the number of metastatic foci of the designated control group and the number of metastatic foci of the drug-treated group, expressed as a percentage of the number of metastatic foci of the designated control group: % Inhibition=[1−(#Focidrug-treated/#Focicontrol)]×100
# (§7) Toxicity: Animals were weighed daily for the first five days of the study and twice weekly thereafter. […] Acceptable toxicity was defined as a group mean body-weight loss of less than 20% during the study and not more than one treatment-related (TR) death among ten treated animals. Any dosing regimen resulting in greater toxicity is considered above the maximum tolerated dose (MTD). A death is classified as TR if attributable to treatment side effects as evidenced by clinical signs and/or necropsy, or if due to unknown causes during the dosing period or within fourteen days of the last dose. A death is classified as non-treatment-related (NTR) if there is no evidence that death was related to treatment side effects.
# Statistical and Graphical Analyses: Prism (GraphPad) for Windows 6.02 was used for all graphical presentations and statistical analyses. The Mann-Whitney U-test, for analysis of medians, was used to determine the statistical significance between D16 B16F10 metastatic foci in control and treated groups. Two-tailed statistical analyses were conducted at P=0.05. A “box and whiskers” diagram was constructed to show the distribution of enumerated metastatic foci for each treatment group on D16.
# Prism reports results as non-significant (ns) at P>0.05, significant (symbolized by “*”) at 0.01<P≤0.05, very significant (“**”) at 0.001<P≤0.01, and extremely significant (“***”) at P≤0.001.
# [3] = test system: B16-F10 cells (lung metastases); settings: for Mean Met Count: Day 15; for Inhibition (%): compared to Group 1; for Deaths NTR / Deaths TR: n = 10
# Description: as §3, §4, §5, §6, §7
# B16F10 Mouse Lung Metastatic Melanoma Model was developed. About 1.5×10^5 B16-F10 cells (0.2 mL cell suspension) were grown in vitro and administered intravenously (Day 0) to female B6D2F1/Crl mice. On Day 1 dosing with test agents initiated.
# A “look see”-untreated-group was set to evaluate, over a period of 15 days, the number of metastasis. […] Three days later other three mice were examined. When the met count reached approximately 50-100 counts, all groups in the study were sacrificed and final met counts were established. The “look see” group count was not included in the final efficacy analysis. 50-100 met count defined as the target number because most of the individual metastasis could be count easily and mets were less likely to merge with each other difficulty the counting.
# [4] = test system: B16F10 Murine Melanoma (lung metastasis foci); assay: Systemic B16F10 murine melanoma model, lung metastasis foci (independent laboratory); format: in vivo, C57BL/6 mice
# B16F10 murine melanoma [5] = assay: Subcutaneous B16F10 murine melanoma model, thymosin (Study No. 1 and Study No. 2); format: in vivo, C57BL/6 mice; settings: for mean tumor size / T/C value: day 14 post tumor inoculation; for tumor growth delay: at tumor size of 1,140 mm^3
# Description: as §1
# To study the effect of thymosin in treating melanoma, thymosin alpha peptide (ZADAXIN) was administered to mice inoculated with B16F10 in two separate studies:
# as §2
# IL-1β [6] = assay: Biomarker evaluation in subcutaneous B16F10 murine melanoma model (FIG. 4A); format: in vivo, C57BL/6 mice; settings: subcutaneously twice a day for 6 days at 0.02, 0.06, 0.2, 0.3, 2, or 6 mg/kg, D4 and D7 after start of dosing
# Description: FIG. 4A depicts evaluation of IL-1β in subcutaneous B16F10 murine melanoma model in C57BL/6 mice treated with thymosin. ZADAXIN™ (thymalfasin) was administered to mice subcutaneously twice a day for 6 days at 0.02, 0.06, 0.2, 0.3, 2, or 6 mg/kg 10 μL/g. IL-1β levels were lower in ZADAXIN™ (thymalfasin) treated groups compared to vehicle treated groups at D4 and D7 after start of dosing.
# (§8) In the studies described above, a group of potential biomarkers were tested in, including IL-7, 11-18, TREM-1, IFN-α, procalcitonin, GM-CSF, IL-1α, IFN-γ, TNF a, IL-2, IL-4, IL-5, IL-6, IL-10, IL-12p70, and IL-1β.
# IL-4 = assay: Biomarker evaluation in subcutaneous B16F10 murine melanoma model (FIG. 4B); format: in vivo, C57BL/6 mice; settings: subcutaneously twice a day for 6 days at 0.02, 0.06, 0.2, 0.3, 2, or 6 mg/kg, D4 and D7 after start of dosing
# Description: FIG. 4B depicts evaluation of IL-4 in subcutaneous B16F10 murine melanoma model in C57BL/6 mice treated with thymosin. ZADAXIN™ (thymalfasin) was administered to mice subcutaneously twice a day for 6 days at 0.02, 0.06, 0.2, 0.3, 2, or 6 mg/kg 10 μL/g. IL-4 levels were higher in ZADAXIN™ (thymalfasin) treated groups compared to vehicle treated groups at D4 and D7 after start of dosing.
# as §8
# IL-6 = assay: Biomarker evaluation in subcutaneous B16F10 murine melanoma model (FIG. 4C); format: in vivo, C57BL/6 mice; settings: subcutaneously twice a day for 6 days at 0.02, 0.06, 0.2, 0.3, 2, or 6 mg/kg, D4 and D7 after start of dosing
# Description: FIG. 4C depicts evaluation of IL-6 in subcutaneous B16F10 murine melanoma model in C57BL/6 mice treated with thymosin. ZADAXIN™ (thymalfasin) was administered to mice subcutaneously twice a day for 6 days at 0.02, 0.06, 0.2, 0.3, 2, or 6 mg/kg 10 μL/g. IL-6 levels were lower in ZADAXIN™ (thymalfasin) treated groups compared to vehicle treated groups at D4 and D7 after start of dosing.
# as §8
# IL-1β [7] = assay: Biomarker evaluation in subcutaneous B16F10 murine melanoma model (FIG. 4D); format: in vivo, C57BL/6 mice; settings: subcutaneously twice a day for 6 days at 0.02, 0.06, 0.2, 0.3, 2, or 6 mg/kg, D4 and D7 after start of dosing
# Description: FIG. 4D depicts evaluation of IL-1β in subcutaneous B16F10 murine melanoma model in C57BL/6 mice treated with thymosin. ZADAXIN™ (thymalfasin) was administered to mice subcutaneously twice a day for 6 days at 0.02, 0.06, 0.2, 0.3, 2, or 6 mg/kg 10 μL/g. IL-1β levels were lower in ZADAXIN™ (thymalfasin) treated groups compared to vehicle treated groups at D4 and D7 after start of dosing.
# as §8
# [8] = Group 13: Cyclophosphamide 300 mg/kg ip qd ×1
# [9] = Group 13: Cyclophosphamide 300 mg/kg
# [10] = Group 9: Cyclophosphomide 300 mg/kg
# [11] = Group 2: SR1 0.4862 μg/animal sc bid to end
# [12] = Group 3: SR1 4.86 μg/animal sc bid to end
# [13] = Group 4: SR1 48.62 μg/animal sc bid to end
compound,measurement,setting,value
N.N.[Cl][Pt][Cl] [Cisplatin],Tumor Size (mm^3) on Day 28,"B16F10 murine melanoma [1]; B16F10 mice treated with cisplatin, Day 28, historical control study",862 ± 233 mm^3
same,body weight,"B16F10 murine melanoma [1]; B16F10 mice treated with cisplatin, FIG. 1B, result of the toxicity of cisplatin",significantly reduced body weight
same,T/C Value (%) on Day 28,"B16F10 murine melanoma [1]; cisplatin vs vehicle, Day 28",30%
same,T-C (days) at 800 mm^3,"B16F10 murine melanoma [1]; cisplatin vs vehicle, at tumor size 800 mm^3",>4 days
O=P1(N(CCCl)CCCl)NCCCO1 (centres unmarked) [Cyclophosphamide],Mean Met Count,[2],0.5
same,Percent Inhibition,[2]; doses as E23,99.5%
same,Mean BW Nadir,"[2]; lowest group mean body weight, as % change from Day 1, Cyclophosphamide nadir on Day 3, doses as E23",−4.3%
same,Deaths NTR (non-treatment-related death),[2]; doses as E23,0
same,Deaths TR (treatment-related death),[2]; doses as E23,0
same,Mean Met Count,[3]; [8],2
same,Inhibition (%),[3]; [8],99%
same,Mean BW Nadir,"[3]; Group 13: Cyclophosphamide 300 mg/kg, % change from Day 1, nadir Day 2",−8.0%
same,Deaths NTR,[3]; [9],0
same,Deaths TR,[3]; [9],0
same,Inhibition (%),[4]; [10],100%
same,Number of metastasis foci on day 13 (Mean ± SEM),[4]; [10],0 ± 0
"thymosin alpha 1 (Ac-SDAAVDTSSEITTKDLKEKKEVVEEAEN) [TA1, synthetic version sold as ZADAXIN (thymalfasin); code-named SR1]",tumor growth compared with vehicle treated group,"B16F10 murine melanoma [5]; all doses tested, FIG. 2 and FIG. 3",reduced tumor growth
same,tumor growth compared with vehicle treated group (FIG. 3),"B16F10 murine melanoma [5]; several different doses, all tested doses",statistically significant reduced tumor growth
same,mean tumor size,"B16F10 murine melanoma [5]; study I, TA1 0.2 mg/kg bid i.p. for 7 days","1,148 mm^3"
same,tumor growth delay,"B16F10 murine melanoma [5]; study I, TA1 0.2 mg/kg",1.5 days
same,T/C value,"B16F10 murine melanoma [5]; study I, TA1 0.2 mg/kg",57.56%
same,mean tumor size,"B16F10 murine melanoma [5]; study I, TA1 2 mg/kg bid i.p. for 7 days","1,384 mm^3"
same,tumor growth delay,"B16F10 murine melanoma [5]; study I, TA1 2 mg/kg",0.5 days
same,T/C value,"B16F10 murine melanoma [5]; study I, TA1 2 mg/kg",69.36%
same,tumor growth,"B16F10 murine melanoma [5]; study I, TA1 6 mg/kg, decrease didn't reach a significant difference",can delay tumor growth
same,weight changes by group,B16F10 murine melanoma [5]; thymosin treated B16F10 mice,no significant weight changes
same,IL-1β levels compared to vehicle treated groups,IL-1β [6],lower
same,IL-4 levels compared to vehicle treated groups,IL-4,higher
same,IL-6 levels compared to vehicle treated groups,IL-6,lower
same,IL-1β levels compared to vehicle treated groups (FIG. 4D),IL-1β [7],lower
same,Mean Met Count,[2],72.5
same,metastases to lung in melanoma model,[2]; Study I,decreases metastases to lung
same,Percent Inhibition,[2]; doses as E23,31.5%
same,Deaths NTR (non-treatment-related death),[2]; doses as E23,0
same,Deaths TR (treatment-related death),[2]; doses as E23,0
same,Mean Met Count,[3]; [11],186
same,Inhibition (%),[3]; [11],−17%
same,Deaths NTR,[3]; Group 2: SR1 0.4862 μg/animal,0
same,Deaths TR,[3]; Group 2: SR1 0.4862 μg/animal,0
same,Mean Met Count,[3]; [12],182
same,Inhibition (%),[3]; [12],−14%
same,Deaths NTR,[3]; Group 3: SR1 4.86 μg/animal,0
same,Deaths TR,[3]; Group 3: SR1 4.86 μg/animal,0
same,Mean Met Count,[3]; [13],167
same,Inhibition (%),[3]; [13],−5%
same,Deaths NTR,[3]; Group 4: SR1 48.62 μg/animal,0
same,Deaths TR,[3]; Group 4: SR1 48.62 μg/animal,0
same,Inhibition (%),[4]; Group 3: TA1 0.486 μg/mouse,20.35%
same,Number of metastasis foci on day 13 (Mean ± SEM),[4]; Group 3: TA1 0.486 μg/mouse,92 ± 9
same,Inhibition (%),[4]; Group 4: TA1 4.86 μg/mouse,41.83%
same,Number of metastasis foci on day 13 (Mean ± SEM),[4]; Group 4: TA1 4.86 μg/mouse,67 ± 12
same,Inhibition (%),[4]; Group 5: TA1 48.6 μg/mouse,42.26%
same,Number of metastasis foci on day 13 (Mean ± SEM),[4]; Group 5: TA1 48.6 μg/mouse,66 ± 10
